Data published in patent US20100016225A1, “CONJUGATES COMPRISED OF POLYMER AND HIV gp-41-DERIVED PEPTIDES AND THEIR USE IN THERAPY” (Trimeris, Inc., priority 2002, published 2010).

Assays:
[1] = test system: HIV-1 strain IIIB; assay: In vitro infectivity assay, HIV-1 strain IIIB (Table 5); format: cell-based
Text: (§1) Illustrated in this example is the unexpected result of antiviral potency using the conjugates according to the present invention. […] In determining antiviral activity (e.g., one measure being the ability to inhibit transmission of HIV to a target cell) of the conjugates according to the present invention, used was an in vitro assay which has been shown, by data generated using synthetic peptides derived from either of the HR regions of HIV gp41, to be predictive of antiviral activity observed in vivo.
(§2) The infectivity assays score for reduction of infectious virus titer employing the indicator cell lines MAGI or the CCR5 expressing derivative cMAGI. Both cell lines exploit the ability of HIV-1 that to transactivate the expression of a β-galactosidase reporter gene driven by the HIV-LTR. The β-gal reporter has been modified to localize in the nucleus and can be detected with the X-gal substrate as intense nuclear staining within a few days of infection. The number of stained nuclei can thus be interpreted as equal to the number of infectious virions in the challenge inoculum if there is only one round of infection prior to staining. Infected cells are enumerated using a CCD-imager and both primary and laboratory adapted isolates show a linear relationship between virus input and the number of infected cells visualized by the imager. […] Peptides tested for antiviral activity were diluted into various concentrations, and tested in duplicate or triplicate against an HIV inoculum adjusted to yield approximately 1500-2000 infected cells/well of a 48 well microtiter plate. The peptide (in the respective dilution) was added to the CMAGI or MAGI cells, followed by the virus inocula; and 24 hours later, an inhibitor of infection and cell-cell fusion (e.g., T20) was added to prevent secondary rounds of HIV infection and cell-cell virus spread. The cells were cultured for 2 more days, and then fixed and stained with the X-gal substrate to detect HIV-infected cells. The number of infected cells for each control and peptide dilution was determined with the CCD-imager, and then the IC50 and IC90 were calculated (expressed in μg/ml).
(§3) Using the methods taught in Example 1 herein, additional conjugates were produced by varying the polymer, the terminus of the synthetic peptide which is operably bound to polymer, and the reactive functionality used for operably binding synthetic peptide to polymer. Two molecules of synthetic peptide (e.g. SEQ ID NO:4) were operably bound to polymer. Such conjugates were then tested for antiviral activity against HIV isolates IIIB, and HIV-1 T20S & HIV-1 T20R (see Table 2 for HIV resistant strains), with the antiviral activity (IC50) expressed in μg/ml. The results for the various conjugates (Table 5, A-Q), terminus of synthetic peptide used for operably binding polymer (Table 5, C-terminus denoted as “C”, N-terminus denoted as “N”) or if an internal lysine was used (Table 5, “Lys 18”, signifying lysine as amino acid residue 18 in the amino acid sequence of the synthetic peptide), antiviral activity (IC50) against HIV-1 strain IIIB (Table 5, “IIIB”), antiviral activity (IC50) against HIV-1 T20S (Table 5, “T20S”) and antiviral activity (IC50) against HIV-1 T20R (Table 5, “T20R”), are illustrated in Table 5.

[2] = test system: HIV-1 T20S; format: cell-based; conditions: HIV-1 T20S, Table 5
Text: as §1, §2
In this first example of antiviral potency, two clinical isolates of HIV were obtained from the same HIV-infected individual. A first isolate, hereby designated “HIV-1 T20S” for ease of description, was sensitive to the antiviral effect of T20 (SEQ ID NO:4) both in vitro and in vivo. […] The results, with the IC50 expressed in ng/ml, are illustrated in Table 2.
as §3

[3] = test system: HIV-1 T20R; format: cell-based; conditions: HIV-1 T20R, Table 5
Text: The infectivity assays score for reduction of infectious virus titer employing the indicator cell lines MAGI or the CCR5 expressing derivative cMAGI. Both cell lines exploit the ability of HIV-1 that to transactivate the expression of a β-galactosidase reporter gene driven by the HIV-LTR. The β-gal reporter has been modified to localize in the nucleus and can be detected with the X-gal substrate as intense nuclear staining within a few days of infection. The number of stained nuclei can thus be interpreted as equal to the number of infectious virions in the challenge inoculum if there is only one round of infection prior to staining. […] The peptide (in the respective dilution) was added to the CMAGI or MAGI cells, followed by the virus inocula; and 24 hours later, an inhibitor of infection and cell-cell fusion (e.g., T20) was added to prevent secondary rounds of HIV infection and cell-cell virus spread. The cells were cultured for 2 more days, and then fixed and stained with the X-gal substrate to detect HIV-infected cells. The number of infected cells for each control and peptide dilution was determined with the CCD-imager, and then the IC50 and IC90 were calculated (expressed in μg/ml).
In this first example of antiviral potency, two clinical isolates of HIV were obtained from the same HIV-infected individual.
Using the methods taught in Example 1 herein, additional conjugates were produced by varying the polymer, the terminus of the synthetic peptide which is operably bound to polymer, and the reactive functionality used for operably binding synthetic peptide to polymer. Two molecules of synthetic peptide (e.g. SEQ ID NO:4) were operably bound to polymer.

[4] = test system: HIV; conditions: Lawless et al., 1996; cited from earlier work

| Substance | IIIB (antiviral activity, IC50) [1] | T20S (antiviral activity, IC50) [2] | T20R (antiviral activity, IC50) [3] | 50% effective concentration values (EC50), blocked infection of T cells [4] |
| --- | --- | --- | --- | --- |
| Conjugate A: two molecules of SEQ ID NO:4 bound via N-terminus to PEG 6 | .037 µg/mL | .029 µg/mL | .050 µg/mL |  |
| Conjugate B: two molecules of SEQ ID NO:4 bound via C-terminus to PEG 6 | .117 µg/mL | .053 µg/mL | .070 µg/mL |  |
| Conjugate C: two molecules of SEQ ID NO:4 bound via C-terminus to PEG 6 | .065 µg/mL | .046 µg/mL | .050 µg/mL |  |
| Conjugate D: two molecules of SEQ ID NO:4 bound via N-terminus to alkyl C5 | .039 µg/mL | .036 µg/mL | .049 µg/mL |  |
| Conjugate E: two molecules of SEQ ID NO:4 bound via N-terminus to PEG 8 | .018 µg/mL | .026 µg/mL | .020 µg/mL |  |
| Conjugate F: two molecules of SEQ ID NO:4 bound via N-terminus to alkyl C8 | .089 µg/mL | .049 µg/mL | .087 µg/mL |  |
| Conjugate G: two molecules of SEQ ID NO:4 bound via N-terminus to alkyl C11 | .174 µg/mL | .176 µg/mL | .218 µg/mL |  |
| Conjugate H: SEQ ID NO:4 bound via N-terminus to AT, a triacid (e.g., trisuccinimidylamino triacetate) | .046 µg/mL | .047 µg/mL | .124 µg/mL |  |
| Conjugate I: two molecules of SEQ ID NO:4 bound via N-terminus to PEG 4-6-4 | .029 µg/mL | .012 µg/mL | .029 µg/mL |  |
| Conjugate J: two molecules of SEQ ID NO:4 bound via N-terminus to PEG 3 | .036 µg/mL | .028 µg/mL | .049 µg/mL |  |
| Conjugate K: two molecules of SEQ ID NO:4 bound via N-terminus to PEG 4 | .033 µg/mL | .026 µg/mL | .067 µg/mL |  |
| Conjugate L: two molecules of SEQ ID NO:4 bound via C-terminus to GLY-PEG 3 (glycine linker) |  | .061 µg/mL |  |  |
| Conjugate M: two molecules of SEQ ID NO:4 bound via C-terminus to GLY-C2 (glycine linker) |  | .085 µg/mL |  |  |
| Conjugate N: two molecules of SEQ ID NO:4 bound via N-terminus to PEG 10 | .039 µg/mL | .017 µg/mL | .023 µg/mL |  |
| Conjugate O: two molecules of SEQ ID NO:4 bound via C-terminus to GLY-C6 (glycine linker) |  | .083 µg/mL |  |  |
| Conjugate P: two molecules of SEQ ID NO:4 bound via C-terminus to GLY-PEG 6 (glycine linker) |  | .031 µg/mL |  |  |
| Conjugate Q: two molecules of SEQ ID NO:4 bound via internal lysine (Lys18) to PEG 6 | .057 µg/mL | .055 µg/mL | .120 µg/mL |  |
| LTWQEWDREINNYTSLIYSLIEESQNQQEENEQELL [synthetic peptide alone] | .007 µg/mL | .010 µg/mL | 1.2 µg/mL |  |
| NNLLRAIEAQQHLLQLTVWGIKQLQARILAVERYLKDQ [DP107] |  |  |  | 1 µg/mL |
